Experimental findings from US20250040554A1, “NEW USES OF PHENMEDIPHAM AND HERBICIDAL COMBINATIONS COMPRISING PHENMEDIPHAM” (BAYER AKTIENGESELLSCHAFT, priority 2021, published 2025) are described below.

One data set deals with soybean (GLXMA). Briefly: Damage in soybean in the field trials of Tables 4a to 4e. The format is in vivo, Glycine max. The following applies: PMP applied to GLXMA at growth stage BBCH 14, field trials of Tables 4a to 4e, each case. As to the method: In the field trials of Tables 4a to 4e also the damage in soybean was assessed when PMP was applied to GLXMA at growth stage BBCH 14. The damage observed in each case was agronomically acceptable, i.e. below 15%.

For data set [1], the system named is corn (Zea mays subsp. amylacea, ZEAMA). Briefly: Greenhouse selectivity trial, post-emergence, corn. The conditions noted are these: 8 DAA. The format is in vivo. From the text: The respective (combinations of) materials were applied to weed plants in the greenhouse or in the field at the respective growth stage indicated hereinafter for the different weed species mentioned below. The respective (combinations of) active ingredients were also applied to corn, cotton and soybean crop plants, and the selectivity (damage) in these crop plants rated (assessed).
Visual scoring of the damage to the trial plants took place after the time mentioned in the respective Table—indicated in number of Days After Application (DAA). Damage and development of all above-ground parts of the respective plants was recorded. Visual rating was done on a percentage scale in relation to the untreated control (100%=all plants dead; 50%=green plant biomass reduced by 50%, and 0%=no discernible difference=like control plot).
The trials in the greenhouse were sprayed with an application volume of 300 L/ha with an automated track sprayer. The plots in the field were sprayed with an application volume of 140 L/ha with a hand held spray boom.
In greenhouse selectivity trials and trials herbicidal activity trials against weed plants were investigated in post-emergence application of the respective material(s).
Phenmedipham was applied at varying application rates (Dose Rate) to the crop plants of corn (Zea mays subsp. amylacea, ZEAMA), soybean (Glycine max, GLXMA) and cotton (Gossypium hirsutum, GOSHI) at a BBCH growth stage of the plants of BBCH 13 and the crop safety (crop injury, damage) assessed. The results are shown in Table 1 as the % damage when assessed 8 days after application (8 DAA).
In all the selectivity trials of Table 1 the adjuvant Mero® (rapeseed oil methyl ester) was added to the respective spray mixture in an amount corresponding to 1 L/ha.

For `COC(=O)Nc1cccc(OC(=O)Nc2cccc(C)c2)c1` [PMP, 3-[(methoxyformyl)amino]phenyl (3-methylphenyl)carbamate], the damage in soybean result in the data set with soybean (GLXMA) is recorded as “below 15%”. Also, the “% damage ZEAMA (corn)” value turned out to be 0% in data set [1] (12.5 g/ha); 0% in data set [1] (25 g/ha); 7% in data set [1] (75 g/ha); 0% in data set [1] (125 g/ha); 15% in data set [1] (200 g/ha); 30% in data set [1] (300 g/ha).
